Literature values as cited in patent US9353109B2, “Flindersia alkaloids, derivatives and analogs: compositions and methods for producing the same” (UNIVERSITY OF HOUSTON SYSTEM, priority 2012, dated 2016).

system: chloroquine-resistant falciparum strains; conditions: at concentrations that do not affect mammalian cells' viability

Compound | effectiveness toward chloroquine-resistant falciparum strains
C[C@@H]1CC[C@H]2[C@@H](C)C(=O)O[C@@H]3O[C@@]4(C)CC[C@@H]1[C@]32OO4 [artemisinin, reference compound] | show effectiveness toward chloroquine-resistant falciparum strains
CNCCc1c(C2C3C(C=C(C)CC3(C)C)c3c(CCNC)c4ccccc4n32)[nH]c2ccccc12 (stereo not shown) [isoborreverine] | show effectiveness toward chloroquine-resistant falciparum strains
dimethylisoborreverine | show effectiveness toward chloroquine-resistant falciparum strains
CC(C)=C[C@H]1C[C@](C)(/C=C/c2[nH]c3ccccc3c2CCN(C)C)n2c1c(CCN(C)C)c1ccccc12 [flinderole B] | show effectiveness toward chloroquine-resistant falciparum strains
CC(C)=C[C@H]1C[C@@](C)(/C=C/c2[nH]c3ccccc3c2CCN(C)C)n2c1c(CCN(C)C)c1ccccc12 [flinderole C] | show effectiveness toward chloroquine-resistant falciparum strains
CCN(CC)CCCC(C)Nc1ccnc2cc(Cl)ccc12 (stereo not shown) [chloroquine, reference compound] | show effectiveness toward chloroquine-resistant falciparum strains
CNCCc1c(/C=C/[C@@]2(C)C[C@H](C=C(C)C)c3c(CCNC)c4ccccc4n32)[nH]c2ccccc12 [flinderole A] | show effectiveness toward chloroquine-resistant falciparum strains
